Patent publication US12029715B2, “Precursor compounds for providing retinoids of the vitamin A5 pathway and uses thereof” (UNIVERSITY OF DEBRECEN, priority 2015, dated 2024)
“Also recorded” adds a separate entry of the source.

Key:
C57BL/6N mice [1] = experiment: Chronic social defeat stress model, forced swim test; format: in vivo, mouse; conditions: stressed mice, 10 mg/kg i.p. every second day of stress protocol; 10 mg/kg
Experimental: (§1) The forced swim paradigm was carried out between 1 pm and 4 pm in a 3-litre glass beaker half-filled with water at 22-23° C. (the water depth was 17 cm). All mice were tested only once in this task. To this end, each mouse was lowered gently into the water and the time of immobility was scored during a 6-minute testing period. The mouse was judged immobile when it floated in an upright position and made only small movements to keep its head above the water. After 6 min, the mouse was taken out of the water, left to dry under a red light lamp and returned to its home cage. The immobility scores of each animal were used as an index of despair behavior.
(§2) Social defeat stress procedure was a modified version of the protocol previously described (Berton, McClung et al. 2006). C57BL/6N mice were defeated chronically for 10 consecutive days. Every day they were exposed to the physical contact with an unfamiliar CD1 aggressor in its home cage for maximal interaction time of 5 minutes. After each session of physical stress, C57BL/6N and CD1 mice were separated by a perforated wall and maintained in sensory contact for 24 h. After the last session of stress, mice were transferred into new cages and housed separately throughout the behavioral tests period. C57BL/6N control mice, similarly to the experimental animals, were housed two per cage separated by a metal perforated wall. Every day, they were exposed to the physical contact for 5 minutes.
For behavioral analysis, 9CDHROL and 9CDHBC were dissolved in ethanol, and then mixed with sunflower oil, so that the final solution contained 3% ethanol. Vehicle treatments consisted of 3% ethanol solution in sunflower oil. For memory studies treatments with 9CDHRA were administered by intraperitoneal injections at volume/weight ratio 3 ml/kg at 7 am and 7 hours before the beginning of testing. For tests with animal model of chronic social defeat, different treatments were administered by intraperitoneal injections at volume/weight ratio 3 ml/kg at 10 mg/kg for each substance between 5-6 pm every second day of stress protocol immediately after the stress session starting from day 1 of the stress protocol.
as §1, with “paradigm (Dalvi and Lucki, 1999)” for “paradigm”, “2-litre” for “3-litre”
Social defeat stress procedure was a modified version of the protocol previously described (Berton et al. 2006). C57BL/6N mice were defeated chronically for 10 consecutive days. Every day they were exposed to the physical contact with an unfamiliar CD1 aggressor in its home cage for maximal interaction time of 5 minutes. After each session of physical stress, C57BL/6N and CD1 mice were separated by a perforated wall and maintained in sensory contact for 24 h. After the last session of stress, mice were transferred into new cages and housed separately throughout the behavioral tests period. […]

C57BL/6N mice [2] = experiment: Chronic social defeat stress model, sucrose preference test; format: in vivo, mouse; conditions: stressed mice, 10 mg/kg i.p. every second day of stress protocol; 10 mg/kg
Excerpt: This task, designed to measure hedonic behaviors in mice is based on the palatable nature of sucrose observed in a number of mouse strains. On the first day of the test, sucrose-naive mice were placed in individual cages at 11 am and left there with water and food for habituation period. At 5 pm one water bottle was replaced with two bottles: one containing water and another 0.8% sucrose solution. Three hours later (8 pm) the bottles were weighed to measure liquid consumption and were replaced in cages until morning. The measures of an overnight consumption were then carried out for additional day to evaluate sucrose preference. Mice were not water deprived at any moment, in order to measure spontaneous sucrose preference and exclude any potential emotional confounds induced by stress of water deprivation. The sucrose preference was expressed as the percent of sucrose solution consumed with respect to total liquid consumption.
as §2
For behavioral analysis, 9CDHROL and 9CDHBC were dissolved in ethanol, and then mixed with sunflower oil, so that the final solution contained 3% ethanol. Vehicle treatments consisted of 3% ethanol solution in sunflower oil. For memory studies treatments with 9CDHRA were administered by intraperitoneal injections at volume/weight ratio 3 ml/kg at 7 am and 7 hours before the beginning of testing. For tests with animal model of chronic social defeat, different treatments were administered […] day of stress protocol immediately after the stress session starting from day 1 of the stress protocol.
This task, designed to measure hedonic behavior in mice (Moreau, 1997), is based on the palatable nature of sucrose observed in a number of mouse strains. On the first day of the test, sucrose-naive mice were placed in individual cages at 11 am and left there with water and food for habituation period. At 5 pm one water bottle was replaced with two bottles: one containing water and another 0.8% sucrose solution. Three hours later (8 pm) the bottles were weighed to measure liquid consumption and were replaced in cages until morning. The measures of an overnight consumption were then carried out for additional day to evaluate sucrose preference. Mice were not water deprived at any moment, in order to measure spontaneous sucrose preference and exclude any potential emotional confounds induced by stress of water deprivation. The sucrose preference was expressed as the percent of sucrose solution consumed with respect to total liquid consumption.
Social defeat stress procedure was a modified version of the protocol previously described (Berton et al. 2006). C57BL/6N mice were defeated chronically for 10 consecutive days. […]

[3] = Mouse oral supplementation, retinoid levels in serum, brain and liver (LC-MS); format: in vivo; conditions: mice
Experimental: For metabolic analyses ATROL, 9CDHROL, 9CDHBC and control solutions were prepared as described above. Single per os application of the dose of 40 mg/kg of each substance was used to treat mice in the evening and samples were collected 11 h later in the light protected conditions, weighted, frozen in liquid nitrogen and stored at −80° C. until analyses. Serum was prepared and immediately stored in brown vials at −80° C., till further analysis.
Accordingly, for sample preparation 100 mg of the material (if samples were under 100 mg, water was added up to the used standard weight: 100 mg) or 100 μl serum was diluted with a threefold volume of isopropanol, the tissues were minced by scissors, vortexed for 10 seconds, put in a ultrasonic bath for 5 minutes, shaken for 6 minutes and centrifuged at 13000 rpm in a Heraeus BIOFUGE Fresco at +4° C. […] The dried extracts were resuspended with 30 μl of methanol—MTBE (50-50) and transferred into the autosampler and 10 μl subsequently analysed.
Mouse brain samples were prepared according to the procedure described above. Briefly, after single per os application of the dose of 40 mg/kg of 9CDHROL (or other cited substances) in the evening mice were sacrificed after 11 hours and tissues samples including brain were dissected under light-protection conditions, weighted, frozen in liquid nitrogen and stored at −80° C. until analyses. Serum was prepared and immediately stored in brown vials at −80° C., till further analysis.
For mouse supplementation experiments we treated n=6 mice per os with 40 mg/kg bw 9CDHROL and 11 h after the treatment the mice were killed and blood, brain and liver was taken. After centrifugation of the drawn blood, serum was obtained.

[4] = tested on: oligodendrocytes cell line 158N; experiment: Metabolic conversion in mouse oligodendrocytes cell culture (LC-MS); format: in vitro ADME
Experimental: Normal immortalized oligodendrocytes cell line 158N was cultured as previously reported (Feutz et al., 2001). Expediently, cells were cultured in supplemented with 5% calf serum (Invitrogen, France). When cells attained 70% of confluency they were treated with 10^−2 M ethanol solution of one of the following compounds: 9CDHROL, 9CDHROL-acetate, 9CDHRA-ethyl ester. 9CDHRA and ethanol as controls, vehicle treatment. 18 h after treatment cells were collected in amber Eppendorf tubes and stored at −80° C. until analyses. Treatments and cell collection were carried out in light limited conditions to avoid photolysis of retinoids.
(§3) In a slight variant of the method, after reaching confluency of 80% cells were treated with 9CDHROL, 9CDH-retinyl ester (acetate, 9CDHROL-ES), 9CDHRA, 9CDH-retinoyl ester, (ethyl ester, 9CDHRA-ES), ATROL, 9CDHBC, 9CBC and ATBC at a concentration of 10^−6 M or ethanol at corresponding concentration was used as control vehicle treatment. Cells were harvested 18 hours later, centrifuged, weighted, frozen in liquid nitrogen and stored at −80° C. until analyses.
(§4) High performance liquid chromatography mass spectrometry (LC-MS) was carried out as described in Example 4.

[5] = tested on: human oligodendrocytes cell cultures; experiment: Metabolic conversion in human oligodendrocytes cell culture (HPLC-MS); format: in vitro ADME
Experimental: as §3, §4
9CDHRA levels including standard deviation in human oligodendrocytes cultures were assessed using HPLC-MS analysis after control treatment using ethanol (CTRL), as well as ATROL treatment (ATROL), 9CBC treatments (9CBC), ATBC treatments (ATBC), 9CDHBC treatment (9CDHBC), 9CDHROL treatments (9CDHROL), 9CDHROL-ester treatments (9CDHROL-ES), 9CDHRA treatments (9CDHRA) or 9CDHRA-ester treatments (9CDHRA-ES), each with 10^−6M concentration and n=3 (FIG. 14D).

[6] = after column chromatography
[7] = per os 40 mg/kg, 11 h after treatment

SMILES: CC1=C(/C=C/C(C)=C\C=C\[C@H](C)C/C=C/C=C(C)/C=C/C=C(C)/C=C/C2=C(C)CCCC2(C)C)C(C)(C)CCC1 (stereo in doubt) [9CDHBC, (R)-9-cis-13,14-Dihydro-β,β-carotene]
- immobility time in the forced swim test (C57BL/6N mice [1]): decreased such immobility; also recorded: efficiently normalised immobility time
- sucrose preference (anhedonia) (C57BL/6N mice [2]): prevented; also recorded: Anhedonia was abolished
- ATROL levels in mouse organs after treatment ([3]; oral gavage 40 mg/kg): no metabolic conversion
- 9CDHRA levels in serum, brain and liver after treatment (conversion to 9CDHRA) [3, 7]: moderate but significant increase
- 9CDHROL levels in serum, brain and liver after treatment [3, 7]: did not increase
- ATROL levels in cells after treatment ([4]; 10^−6M): a low conversion or induced increase
- 9CDHROL levels in cells after treatment ([4]; 10^−6 M, 18 hours): increases; also recorded: moderately
- 9CBC in cells after treatment ([4]; 411 nm detection, retention time 26.1 min): no 9CBC could be detected
- 9CDHBC peak in cells after treatment ([4]; UV detection at 366 nm, retention time 25.1 min): even higher peak was conclusively detected
- conversion to 9CDHRA ([4]; data not shown): not converted to 9CDHRA
- 9CDHRA levels in cells after treatment (metabolism / accumulation) ([5]; 10^−6M, n=3): not converted to 9CDHRA
- precursor substrate of 9CDHROL ([5]; in vitro): excellent precursor substrates
- stability of the isolated product [6]: very unstable and easily degraded
